Inconclusive results and toxic doses are left out. Cut-off read from the data, not from the text of the source: active = T/C of 150% or more; inactive = T/C below 125%.
Test system: L1210 leukemia ip in BDF1 mice, survival T/C
Assay: NCI In Vivo Anticancer Drug Screen. Data for tumor model L1210 Leukemia (intraperitoneal) in B6D2F1 (BDF1) mice
Conditions: endpoint: mean survival time, higher = longer survival
Method in brief: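 Survival endpoint. Drug-treated group vs vehicle group, expressed as T divided by C. Tumor passaged by transplantation.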

[1] = dose: 100.0 mg/kg/injection, schedule: Q01DX001 (ip), vehicle: saline
[2] = dose: 200.0 mg/kg/injection, schedule: Q01DX001 (ip), vehicle: saline
[3] = dose: 400.0 mg/kg/injection, schedule: Q01DX001 (ip), vehicle: saline
[4] = dose: 100.0 mg/kg/injection, schedule: Q04DX002 (ip), vehicle: Klucel (hydroxypropylcellulose) (HPC)
[5] = dose: 200.0 mg/kg/injection, schedule: Q04DX002 (ip), vehicle: Klucel (hydroxypropylcellulose) (HPC)
[6] = dose: 400.0 mg/kg/injection, schedule: Q04DX002 (ip), vehicle: Klucel (hydroxypropylcellulose) (HPC)
[7] = dose: 100.0 mg/kg/injection, schedule: Q04DX002 (ip), vehicle: saline with Tween-80
[8] = dose: 200.0 mg/kg/injection, schedule: Q04DX002 (ip), vehicle: saline with Tween-80
[9] = dose: 100.0 mg/kg/injection, schedule: Q01DX009 (ip), vehicle: saline with Tween-80
[10] = dose: 200.0 mg/kg/injection, schedule: Q01DX009 (ip), vehicle: saline with Tween-80
[11] = dose: 100.0 mg/kg/injection, schedule: Q01DX001 (ip), vehicle: carboxymethylcellulose (CMC)
[12] = dose: 200.0 mg/kg/injection, schedule: Q01DX001 (ip), vehicle: carboxymethylcellulose (CMC)
[13] = dose: 400.0 mg/kg/injection, schedule: Q01DX001 (ip), vehicle: carboxymethylcellulose (CMC)
[14] = dose: 100.0 mg/kg/injection, schedule: Q01DX009 (ip), vehicle: Klucel (hydroxypropylcellulose) (HPC)
[15] = dose: 200.0 mg/kg/injection, schedule: Q01DX009 (ip), vehicle: Klucel (hydroxypropylcellulose) (HPC)
[16] = dose: 50.0 mg/kg/injection, schedule: Q01DX009 (ip), vehicle: saline with Tween-80

Measured: T/C

Cc1ccc(OCC(=O)Nc2ccc(Cl)cc2)c(C)c1
inactive: dose: 100.0 mg/kg/injection, schedule: Q01DX001 (ip), vehicle: other 95 % of control | dose: 200.0 mg/kg/injection, schedule: Q01DX001 (ip), vehicle: other 98 % of control | dose: 400.0 mg/kg/injection, schedule: Q01DX001 (ip), vehicle: other 98 % of control

CCOC(=O)c1c(C)c(Br)c(O)c(Br)c1O
inactive: [1] 98 % of control | dose: 100.0 mg/kg/injection, schedule: Q04DX003 (ip), vehicle: other 86 % of control | [2] 91 % of control | dose: 200.0 mg/kg/injection, schedule: Q04DX003 (ip), vehicle: other 100 % of control | [3] 103 % of control | dose: 400.0 mg/kg/injection, schedule: Q04DX003 (ip), vehicle: other 106 % of control

CC(O)C(=O)N(O)c1ccccc1OCc1ccccc1 (stereo not drawn)
inactive: dose: 75.0 mg/kg/injection, schedule: Q01DX001 (ip), vehicle: acetone 104 % of control | dose: 75.0 mg/kg/injection, schedule: Q04DX003 (ip), vehicle: acetone 102 % of control | dose: 150.0 mg/kg/injection, schedule: Q01DX001 (ip), vehicle: acetone 91 % of control | dose: 150.0 mg/kg/injection, schedule: Q04DX003 (ip), vehicle: acetone 98 % of control | dose: 300.0 mg/kg/injection, schedule: Q01DX001 (ip), vehicle: acetone 89 % of control | dose: 300.0 mg/kg/injection, schedule: Q04DX003 (ip), vehicle: acetone 96 % of control

Cc1cccc([N+](=O)[O-])c1O
inactive: [4] 99 % of control | [5] 95 % of control | [6] 87 % of control

O=C(CBr)CC(O)(C(F)(F)F)C(F)(F)F
inactive: dose: 3.0 mg/kg/injection, schedule: Q01DX009 (ip), vehicle: saline 93 % of control | dose: 6.0 mg/kg/injection, schedule: Q01DX009 (ip), vehicle: saline 103 % of control | dose: 12.0 mg/kg/injection, schedule: Q01DX009 (ip), vehicle: saline 103 % of control

CC(C)(C)c1cc(C=C2C(=O)c3ccccc3C2=O)cc(C(C)(C)C)c1O
inactive: [7] 87 % of control | [8] 90 % of control | dose: 400.0 mg/kg/injection, schedule: Q04DX002 (ip), vehicle: saline with Tween-80 93 % of control

CC(C)(C)N1CCOCC1
inactive: dose: 25.0 mg/kg/injection, schedule: Q01DX009 (ip), vehicle: acetone 91 % of control | dose: 50.0 mg/kg/injection, schedule: Q01DX009 (ip), vehicle: acetone 92 % of control | dose: 100.0 mg/kg/injection, schedule: Q01DX009 (ip), vehicle: acetone 87 % of control

O=C(O)C(Nc1ccc(Oc2ccc(NC(C(=O)O)c3ccccc3)cc2)cc1)c1ccccc1 (stereo not drawn)
inactive: [4] 100 % of control | [5] 100 % of control | [6] 100 % of control

NC(=O)C(=Cc1ccc([N+](=O)[O-])s1)C(N)=O
inactive: [4] 107 % of control | [5] 112 % of control

O/N=C(/C(=N/O)c1ccccc1)c1ccccc1.O/N=C(/C(=N/O)c1ccccc1)c1ccccc1.[Pd]
inactive: dose: 50.0 mg/kg/injection, schedule: Q04DX002 (ip), vehicle: Klucel (hydroxypropylcellulose) (HPC) 106 % of control | [4] 95 % of control | [5] 103 % of control

O=C(CCCC(=O)N/N=C/C=C/c1ccccc1)N/N=C/C=C\c1ccccc1
inactive: dose: 50.0 mg/kg/injection, schedule: Q01DX001 (ip), vehicle: saline 87 % of control | [1] 110 % of control | [2] 93 % of control | [3] 97 % of control

Nc1cccc2cc3ccccc3[n+]([O-])c12
inactive: [9] 103 % of control | [10] 103 % of control | dose: 400.0 mg/kg/injection, schedule: Q01DX009 (ip), vehicle: saline with Tween-80 93 % of control

Cc1ccccc1NP1(=O)OCCCN1Cc1ccccc1Cl (stereo not drawn)
inactive: dose: 50.0 mg/kg/injection, schedule: Q01DX001 (ip), vehicle: carboxymethylcellulose (CMC) 104 % of control | [11] 96 % of control | [12] 98 % of control | [13] 95 % of control

CNC(=O)NO
inactive: dose: 50.0 mg/kg/injection, schedule: Q01DX Z (ip), vehicle: water 112 % of control | dose: 200.0 mg/kg/injection, schedule: Q01DX Z (ip), vehicle: water 97 % of control | dose: 400.0 mg/kg/injection, schedule: Q01DX Z (ip), vehicle: water 115 % of control

COC(=O)/C=C/c1ccc(OC)cc1
inactive: dose: 50.0 mg/kg/injection, schedule: Q01DX009 (ip), vehicle: Klucel (hydroxypropylcellulose) (HPC) 103 % of control | [14] 102 % of control | dose: 100.0 mg/kg/injection, schedule: Q04DX003 (ip), vehicle: Klucel (hydroxypropylcellulose) (HPC) 96 % of control | [15] 103 % of control | dose: 200.0 mg/kg/injection, schedule: Q04DX003 (ip), vehicle: Klucel (hydroxypropylcellulose) (HPC) 100 % of control | dose: 400.0 mg/kg/injection, schedule: Q04DX003 (ip), vehicle: Klucel (hydroxypropylcellulose) (HPC) 88 % of control

COc1ccc2nc3cc(Cl)ccc3c(NC(C)CCCN(CCCl)CCCl)c2c1 (stereo not drawn)
inactive: dose: 0.25 mg/kg/injection, schedule: Q01DX009 (ip), vehicle: saline 108 % of control | dose: 0.25 mg/kg/injection, schedule: Q04DX003 (ip), vehicle: saline 115 % of control | dose: 0.5 mg/kg/injection, schedule: Q01DX009 (ip), vehicle: saline 117 % of control | dose: 0.5 mg/kg/injection, schedule: Q04DX003 (ip), vehicle: saline 100 % of control | dose: 1.0 mg/kg/injection, schedule: Q01DX009 (ip), vehicle: saline 104 % of control | dose: 1.0 mg/kg/injection, schedule: Q04DX003 (ip), vehicle: saline 109 % of control | dose: 2.0 mg/kg/injection, schedule: Q04DX003 (ip), vehicle: saline 116 % of control

OC(Cc1cccc(=S)[nH]1)(c1ccccc1)c1ccccc1
inactive: [1] 98 % of control | [2] 93 % of control | [3] 91 % of control

Cc1ccc(C)c(S(=O)(=O)OCC#CCOS(=O)(=O)c2cc(C)ccc2C)c1
inactive: [16] 92 % of control | [9] 92 % of control | dose: 100.0 mg/kg/injection, schedule: Q04DX003 (ip), vehicle: saline 97 % of control | [10] 87 % of control | dose: 200.0 mg/kg/injection, schedule: Q04DX003 (ip), vehicle: saline 97 % of control | dose: 400.0 mg/kg/injection, schedule: Q04DX003 (ip), vehicle: saline 91 % of control

CCOC(=O)CC(CC(=O)OCC)NC(=O)c1ccc(N(C)C(=O)OCc2ccccc2)cc1
inactive: [11] 97 % of control | [12] 100 % of control | [13] 105 % of control

CCC1C(=O)CC(C(=O)O)C1C(=O)O (stereo not drawn)
inactive: [7] 100 % of control | [8] 96 % of control

CC(C)=NNS(=O)(=O)c1ccccc1
inactive: [16] 106 % of control | [9] 108 % of control | [10] 101 % of control

CCOC(=O)NC(CI)c1ccccc1 (stereo not drawn)
inactive: [16] 96 % of control | [9] 88 % of control | [10] 96 % of control

O=C(Nc1ccccc1F)OCCOc1ccccc1Cl
inactive: [14] 115 % of control | [15] 112 % of control | dose: 400.0 mg/kg/injection, schedule: Q01DX009 (ip), vehicle: Klucel (hydroxypropylcellulose) (HPC) 124 % of control

CC(Cl)C(=O)NC(C)C(=O)O (stereo not drawn)
inactive: dose: 12.5 mg/kg/injection, schedule: Q04DX002 (ip), vehicle: saline 97 % of control | dose: 25.0 mg/kg/injection, schedule: Q04DX002 (ip), vehicle: saline 111 % of control | dose: 50.0 mg/kg/injection, schedule: Q04DX002 (ip), vehicle: saline 97 % of control
